Measured values as given in US11273200B2, “Immunotherapy against several tumors including gastrointestinal and gastric cancer” (Immatics Biotechnologies GmbH, priority 2010, dated 2022).

Assays:
[1] = test system: CD8+ T cells; assay: In vitro immunogenicity of HLA-A*0201 restricted TUMAPs: priming of CD8+ T cells with pMHC/anti-CD28 coated beads (aAPC), multimer staining; assay type: cell-based, human; conditions: HLA-A*0201 peptides, healthy donors, three stimulation cycles; for Wells positive/evaluable [%]: at least 48 wells evaluable; for Donors positive/evaluable [%]: at least four donors evaluable
Description: (§1) In order to perform in vitro stimulations by artificial antigen presenting cells (aAPC) loaded with peptide-MHC complex (pMHC) and anti-CD28 antibody, we first isolated CD8 T cells from fresh HLA-A*24 leukapheresis products or from HLA-A*2 buffy coats of healthy donors obtained from the Blood Bank Tuebingen.
(§2) CD8 T cells were either directly enriched or PBMCs (peripheral blood mononuclear cells) were isolated first by using standard gradient separation medium (PAA, Colbe, Germany). Isolated CD8 lymphocytes or PBMCs were incubated until use in T-cell medium (TCM) consisting of RPMI-Glutamax (Invitrogen, Karlsruhe, Germany) supplemented with 10% heat inactivated human AB serum (PAN-Biotech, Aidenbach, Germany), 100 U/ml Penicillin/100 μg/ml Streptomycin (Cambrex, Cologne, Germany), 1 mM sodium pyruvate (CC Pro, Oberdorla, Germany), 20 μg/ml Gentamycin (Cambrex). […] Isolation of CD8+ lymphocytes was performed by positive selection using CD8 MicroBeads (Miltenyi Biotec, Bergisch-Gladbach, Germany).
(§3) 800.000 beads/200 μl were coated in 96-well plates in the presence of 600 ng biotin-anti-CD28 plus 200 ng relevant biotin-pMHC (high density beads). […] Half of the medium was then exchanged by fresh TCM supplemented with 80 U/ml IL-2 and incubation was continued for 3-4 days at 37° C. This stimulation cycle was performed for a total of three times.
(§4) In vitro priming of specific multimer+ CD8+ lymphocytes was detected by appropriate gating and by comparing to negative control stimulations.

[2] = test system: CD8+ T cells; assay: In vitro immunogenicity of HLA-A*2402 restricted TUMAPs: priming of CD8+ T cells with pMHC/anti-CD28 coated beads (aAPC), multimer staining; assay type: cell-based, human; conditions: HLA-A*2402 peptides, healthy donors, three stimulation cycles; for Wells positive/evaluable [%]: at least 48 wells evaluable; for Donors positive/evaluable [%]: at least four donors evaluable
Description: as §1, §2, §3, §4

[3] = described in other applications by immatics; vaccines IMA901, IMA910; cited from earlier work

Row | Substance | Wells positive/evaluable [%] [1] [%] | Donors positive/evaluable [%] [1] [%] | Wells positive/evaluable [%] [2] [%] | Donors positive/evaluable [%] [2] [%] | in vivo reactions [3]
1 | KIFDEILVNA (listed as Homo sapiens) [TOP-001] | 10 | 40 | – | – | –
2 | KIQEILTQV (listed as Homo sapiens) [IGF2BP3-001] | 21 | 50 | – | – | –
3 | VYISSLALL (listed as Homo sapiens) [PSMD14-001] | – | – | 1 | 17 | –
4 | VYKVVGNLL (listed as Homo sapiens) [IQGAP3-001] | – | – | 24 | 100 | –
5 | VYLLNSTTL (listed as Homo sapiens) [CLCN3-001] | – | – | 6 | 33 | –
6 | VYNPTPNSL (listed as Homo sapiens) [COL12A1-001] | – | – | 0 | 0 | –
7 | VYPNWAIGL (listed as Homo sapiens) [SLC6A6-001] | – | – | 1 | 17 | –
8 | VYTTMAEHF (listed as Homo sapiens) [TSPAN1-002] | – | – | 1 | 17 | –
9 | VYTTSYQQI (listed as Homo sapiens) [NFYB-001] | – | – | 7 | 50 | –
10 | YVDPVIT SI (YVDPVITSI; listed as Homo sapiens) [MET-001] | 42 | 67 | – | – | extremely good in vivo reactions
11 | YYKNIGLGF (listed as Homo sapiens) [RPS11-001] | – | – | 3 | 17 | –
12 | YYNAAGFNKL (listed as Homo sapiens) [UQCRB-001] | – | – | 24 | 83 | –
13 | YYYVGFAYL (listed as Homo sapiens) [EIF'3L-001] | – | – | 29 | 100 | –
